Assay results as given in the supplement of paper PMC11061612.

Tests used:
Test in all cases: combination Emax (second highest fraction inhibited in the dose matrix, 72 h); higher = more inhibition; extreme values may be limits of the assay
769-P (Kidney Carcinoma) = system: 769-P (Kidney Carcinoma)
In short: (§1)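 Cell lines grown in DMEM/F12 or RPMI with 10% FBS were plated in 1536-well plates and held 24 hours at 37°C, 5% CO2 before 72 hours of exposure to two-drug dose matrices, with DMSO typically at 0.2%. CellTiter-Glo 2.0 luminescence gave viability, which was converted to inhibition. Vehicle wells were set to 0 and blank wells to 1. Combination Emax is the second-highest inhibition in the matrix, and Bliss excess is the observed combination effect minus the expected EA + EB − EA·EB, where EA and EB are the single-agent effects.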

[1] = system: A253 (Head and Neck Carcinoma)
In short: as §1

[2] = system: DMS-53 (Small Cell Lung Carcinoma)
In short: as §1

EW-7 (Ewing's Sarcoma) = system: EW-7 (Ewing's Sarcoma)
In short: as §1

[3] = system: GCT (Other Solid Carcinomas)
In short: as §1

[4] = system: HCC1395 (Breast Carcinoma)
In short: as §1

[5] = system: HT55 (Colorectal Carcinoma)
In short: as §1

[6] = system: JHH-2 (Hepatocellular Carcinoma)
In short: as §1

[7] = system: JHU-022 (Oral Cavity Carcinoma)
In short: as §1

KP-N-YN (Neuroblastoma) = system: KP-N-YN (Neuroblastoma)
In short: as §1

[8] = system: LS-411N (Colorectal Carcinoma)
In short: as §1

[9] = system: LU-165 (Small Cell Lung Carcinoma)
In short: as §1

[10] = system: MDA-MB-436 (Breast Carcinoma)
In short: as §1

NB13 (Neuroblastoma) = system: NB13 (Neuroblastoma)
In short: as §1

[11] = system: NCI-H441 (Lung Adenocarcinoma)
In short: as §1

[12] = system: NCI-H716 (Colorectal Carcinoma)
In short: as §1

PEO1 (Ovarian Carcinoma) = system: PEO1 (Ovarian Carcinoma)
In short: as §1

[13] = system: SW620 (Colorectal Carcinoma)
In short: as §1

[14] = system: UACC-812 (Breast Carcinoma)
In short: as §1

WM1552C (Melanoma) = system: WM1552C (Melanoma)
In short: as §1

SMILES	combination Emax (769-P (Kidney Carcinoma))	combination Emax [1]	combination Emax [2]	combination Emax (EW-7 (Ewing's Sarcoma))	combination Emax [3]	combination Emax [4]	combination Emax [5]	combination Emax [6]	combination Emax [7]	combination Emax (KP-N-YN (Neuroblastoma))	combination Emax [8]	combination Emax [9]	combination Emax [10]	combination Emax (NB13 (Neuroblastoma))	combination Emax [11]	combination Emax [12]	combination Emax (PEO1 (Ovarian Carcinoma))	combination Emax [13]	combination Emax [14]	combination Emax (WM1552C (Melanoma))
CC1(C)CCC(CN2CCN(c3ccc(C(=O)NS(=O)(=O)c4ccc(NCC5CCOCC5)c([N+](=O)[O-])c4)c(Oc4cnc5[nH]ccc5c4)c3)CC2)=C(c2ccc(Cl)cc2)C1 [Venetoclax] + CN(C)CCCOc1ccc(-c2ccc3ncc4c(c3c2)n(C2CCOCC2)c(=O)n4C)cn1 [AZD0156] (first compound max 1 µM, 7x7, partner max 1 µM)	0.256	0.178	0.44	0.944	0.289	0.685	0.173	0.334	0.167	0.528	0.118	0.164	0.168	0.468	0.25	0.0954	0.134	0.196	0.146	0.562
CCN(CCO)CCCOc1ccc2c(Nc3cc(CC(=O)Nc4cccc(F)c4)[nH]n3)ncnc2c1 [AZD2811] + C=CCn1c(=O)c2cnc(Nc3ccc(N4CCN(C)CC4)cc3)nc2n1-c1cccc(C(C)(C)O)n1 [AZD1775] (first compound max 1 µM, partner max 1 µM)	0.632	0.407	0.111	0.817	0.292	0.682	0.376	0.574	0.388	0.913	0.641	0.333	0.235	0.924	0.343	0.562	0.278	0.461	0.116	0.424
CC1(C)CCC(CN2CCN(c3ccc(C(=O)NS(=O)(=O)c4ccc(NCC5CCOCC5)c([N+](=O)[O-])c4)c(Oc4cnc5[nH]ccc5c4)c3)CC2)=C(c2ccc(Cl)cc2)C1 [Venetoclax] + C[C@@H](Nc1cc(F)cc(F)c1)c1cc(C(=O)N(C)C)cc2c(=O)cc(N3CCOCC3)oc12 [AZD8186] (first compound max 1 µM, 7x7, partner max 3 µM)	0.297	0.103	0.137	0.95	0.32	0.701	0.14	0.806	0.314	0.569	0.343	0.219	0.288	0.253	0.184	0.225	0.0947	0.0907	0.0679	0.365
COc1cccc2c1C(=O)c1c(O)c3c(c(O)c1C2=O)C[C@@](O)(C(=O)CO)C[C@@H]3O[C@H]1C[C@H](N)[C@H](O)[C@H](C)O1 [Doxorubicin] + Cc1cc2ncnn2cc1Nc1ncc2c(n1)n(C1CCOCC1)c(=O)n2C [AZD7648] (first compound max 1 µM, 7x7, partner max 10 µM)	0.706	0.957	0.455	0.889	0.625	0.401	0.678	0.627	0.858	0.698	0.508	0.337	0.504	0.923	0.452	0.305	0.419	0.787	0.296	0.793
COc1cccc(OCCCN)c1-c1cc(Nc2cnc(C#N)cn2)n[nH]1 [Prexasertib] + CCc1c2c(nc3ccc(O)cc13)-c1cc3c(c(=O)n1C2)COC(=O)[C@]3(O)CC [SN-38] (first compound max 1 µM, 7x7, partner max 0.3 µM)	0.789	0.966	0.878	0.96	0.842	0.898	0.863	0.95	0.756	0.985	0.867	0.642	0.693	0.962	0.712	0.726	0.71	0.975	0.604	0.833
C=CCn1c(=O)c2cnc(Nc3ccc(N4CCN(C)CC4)cc3)nc2n1-c1cccc(C(C)(C)O)n1 [AZD1775] + O=C(c1cc(Cc2n[nH]c(=O)c3ccccc23)ccc1F)N1CCN(C(=O)C2CC2)CC1 [Olaparib] (first compound max 1 µM, partner max 10 µM)	0.716	0.35	0.148	0.82	0.501	0.719	0.454	0.574	0.432	0.723	0.417	0.342	0.271	0.935	0.472	0.378	0.384	0.603	0.14	0.486
